Our source for the inhibition and IC50 values is ChEMBL document CHEMBL1141912, “Novel beta-(imidazol-4-yl)-beta-amino acids: solid-phase synthesis and study of their inhibitory activity against geranylgeranyl protein transferase type I” (Bioorg Med Chem Lett, 2005).

pIC50: −log10 of the molar value.

In the first test the target is T1, Geranylgeranyl transferase type I (Homo sapiens, UniProt P49354+P53609). Kind of test: Percent inhibition of Geranylgeranyl transferase type I at 10 uM. The format is protein-complex assay.
As to `O=C(O)CC(c1c[nH]cn1)N(CCc1ccc(F)cc1)Cc1c[nH]c(-c2ccccc2)n1` (centres undefined), the inhibition worked out at 35%.
Still for that read-out and setting: the result for `CCCCOc1ccc(S(=O)(=O)N(CCc2ccc(F)cc2)C(CC(=O)O)c2c[nH]cn2)cc1` (centres undefined) reads 78%.
Same read-out and setting: the result for `Cc1ccccc1CN(Cc1ccc(C(C)(C)C)cc1)Cc1c[nH]cn1` reads 24%; that for `O=C(O)CC(c1c[nH]cn1)N(CCCCCCO)CC(c1ccccc1)c1ccccc1` (centres undefined), 0%.
Still for that read-out and setting: the same measure for `Cc1ccc(CCN(Cc2ccc(Oc3ccccc3)cc2)Cc2c[nH]cn2)cc1`: 72%; for `CCCCCCCN(Cc1ccc(Oc2ccccc2)cc1)Cc1c[nH]cn1`: 40%; for `O=C(O)CC(c1c[nH]cn1)N(CCCc1ccccc1)Cc1cccc2ccccc12` (centres undefined): 74%.
`O=C(O)CC(c1c[nH]cn1)N(Cc1nc[nH]n1)C1CCN(Cc2ccccc2)CC1` (centres undefined) displayed an inhibition of 11%.
As for `Brc1ccc(CCN(Cc2ccc(Oc3ccccc3)cc2)Cc2c[nH]cn2)cc1`, the inhibition amounted to 88%.
Compound `c1cncc(CN(Cc2c[nH]cn2)Cc2ccco2)c1` returned an inhibition of 23%.
The compound `O=C(O)CC(c1c[nH]cn1)N(CCCCCCO)Cc1c[nH]c(-c2ccccc2)n1` (centres undefined) showed an inhibition of 0%.
Still for that read-out and setting: the same measure for `Fc1ccc(CCN(Cc2ccc(Oc3ccccc3)cc2)Cc2c[nH]cn2)cc1`: 78%.
The same measure, in the same setting: the same measure for `O=C(O)CC(c1c[nH]cn1)N(CCc1cccs1)Cc1nc[nH]n1` (centres undefined): 16%; for `Brc1ccc(CCN(Cc2ccc(-c3ccccc3)cc2)Cc2c[nH]cn2)cc1`: 77%; for `O=C(O)CC(c1c[nH]cn1)N(CCc1ccc(F)cc1)S(=O)(=O)c1cc(Cl)sc1Cl` (centres undefined): 53%.
For `CCCCOc1ccc(S(=O)(=O)N(CC2CCCCC2)C(CC(=O)O)c2c[nH]cn2)cc1` (centres undefined), the inhibition amounted to 30%.
In turn, `CC(C)CCN(Cc1ccccn1)C(CC(=O)O)c1c[nH]cn1` (centres undefined) gave an inhibition of 10%.
The same measure, in the same setting: the result for `O=C(O)CC(NC1CCN(Cc2ccccc2)CC1)c1c[nH]cn1` (centres undefined) reads 21%; that for `O=C(O)CC(c1c[nH]cn1)N(Cc1nc[nH]n1)CC1CCCCC1` (centres undefined), 8%.
For `O=C(O)CC(c1c[nH]cn1)N(CC(c1ccccc1)c1ccccc1)C1CCN(Cc2ccccc2)C1` (centres undefined), the inhibition was 18%.
In turn, `O=C(O)CC(c1c[nH]cn1)N(CCc1cccs1)Cc1ccccn1` (centres undefined) had an inhibition of 11%.
The same measure, in the same setting: the result for `CCCCCCN(Cc1nc[nH]n1)C(CC(=O)O)c1c[nH]cn1` (centres undefined) reads 3%.
As to `O=C(O)CC(c1c[nH]cn1)N(CC1CCCCC1)S(=O)(=O)c1cc(Cl)sc1Cl` (centres undefined), the inhibition is 21%.
Same read-out and setting: the same measure for `Brc1ccc(CCN(Cc2ccc3ccccc3c2)Cc2c[nH]cn2)cc1`: 69%.

The target of a further test is Protein farnesyltransferase (Homo sapiens, UniProt P49354+P49356). In words: Inhibition of Farnesyltransferase. The format is protein-complex assay.
For `Brc1ccc(CCN(Cc2ccc(Oc3ccccc3)cc2)Cc2c[nH]cn2)cc1`, the negative-log IC50 (pIC50) is less than 5.00.
On the same count and under the same terms, the same measure for `Fc1ccc(CCN(Cc2ccc(Oc3ccccc3)cc2)Cc2c[nH]cn2)cc1`: less than 5.00.

For another test, the target named is T1, Geranylgeranyl transferase type I. In words: Inhibition of Geranylgeranyl transferase type I. The format is protein-complex assay.
As for `O=C(O)CC(c1cnc[nH]1)N(CCc1ccc(F)cc1)Cc1ccc(-c2ccccc2)cc1` (centres undefined), the negative logarithm of the IC50 (pIC50) was 5.96.
On the same count and under the same terms, the result for `COC(=O)C(CC(C)C)NC(=O)c1ccc(NCC(N)CS)cc1-c1cccc2ccccc12` (centres undefined) reads 6.82; that for `Brc1ccc(CCN(Cc2ccc(Oc3ccccc3)cc2)Cc2c[nH]cn2)cc1`, 6.59.
Compound `Fc1ccc(CCN(Cc2ccc(Oc3ccccc3)cc2)Cc2c[nH]cn2)cc1` showed a negative logarithm of the IC50 (pIC50) of 6.34.
The same measure, in the same setting: the same measure for `CCCCOc1ccc(S(=O)(=O)N(CCc2ccc(F)cc2)C(CC(=O)O)c2cnc[nH]2)cc1` (centres undefined): 5.97; for `O=C(O)CC(c1cnc[nH]1)N(CCc1ccc(F)cc1)Cc1ccc(Oc2ccccc2)cc1` (centres undefined): 7.05; for `O=C(O)CC(c1cnc[nH]1)N(CCc1cccs1)Cc1ccc(-c2ccccc2)cc1` (centres undefined): 5.97.
As for `O=C(O)CC(c1cnc[nH]1)N(CCCCc1ccccc1)Cc1ccc(Oc2ccccc2)cc1` (centres undefined), the pIC50 is 6.07.

One may read the inhibition as the share of the control response that was lost under treatment. A high value points to strong suppression. As a reminder, the pIC50 is the negative decadic logarithm of the IC50, by convention in mol/L. A higher pIC50 goes with a small IC50.
